Consider 11 compounds from patent US9062045B2, “Triazolopyridine compounds” (Novartis AG, priority 2012, dated 2015).

Each structure is given as a SMILES string.

One assay has as its system GTL16 cells. The assay can be described thus: GTL16 cell viability assay (CellTiter Glo). The conditions noted are these: read-out: GTL-16 Proliferation IC50; GTL16 cells, 24 hours.
The target of assay [1] is c-Met receptor tyrosine kinase, GST-c-MET (969-1390) (Homo sapiens (Human), UniProt P08581). The conditions noted are these: read-out: c-Met Biochem IC50; 2 μM ATP, 60 minutes at room temperature.
Procedure: A number of compounds of the present invention were assayed in an antibody based kinase phosphorylation assay as follows.
The EPK kinase assay for c-Met receptor tyrosine kinase was developed, using the purified recombinant GST-fusion protein, containing the cytoplasmic domain of the enzyme.
The kinase assay is based on the LanthaScreen™ technology.
The kinase reactions were performed in 384 well microtiter plates in a total reaction volume of 10.05 μL. The assay plates were prepared with 0.05 μL per well of test compound in the appropriate test concentration, as described under “preparation of compound dilutions”. The reactions were started by combining 5 μL of ATP solution with 5 μL of enzyme-substrate mix (consisting of kinase and substrate). […] Subsequently 5 μL of detection mix (50 mM Tris/HCl, 2 mM DTT, 0.05% Tween20, 20 μM sodium orthovanadate, 1% BSA, 1 nM Tb-PY20 antibody) were added to the stopped reactions. After 45 minutes incubation in dark at room temperature, the plates were measured in a Perkinelmer Envision fluorescence reader.
The target in another assay is human platelet PDE3 (Homo sapiens (Human), UniProt Q14432). Put plainly: hPDE3 assay ([3H]cAMP scintillation proximity assay). It is filed as biochemical. Particulars: human platelet PDE3. The text has this:
Here, compounds of formula I were screened for their ability to inhibit human PDE3 in the assay based on Amersham Pharmacia Biotech's Phosphodiesterase (PDE) [^3H]-adenosine 3′,5′ cyclic phosphate ([^3H]cAMP) Scintillation Proximity Assay (SPA). The assay is based on the hydrolysis of [^3H]cAMP, by human platelet PDE3, to [^3H]5′-adenoside monophosphate (5′-AMP). The [^3H]5′-AMP is specifically captured by yttrium silicate SPA beads in the presence of zinc sulphate.
• Optiplate and TopSeal-S (Can berra Packard) • Human platelet PDE3 (partially purified from human platelets)—a titration curve of human platelet PDE3 activity was performed to optimise the concentration of hPDE3 required in the assay. • Yttrium silicate SPA beads and [^3H]cAMP (Amersham) • Tris-Base, magnesium chloride, ethylenediaminetetraacetic acid (di-sodium salt), bovine serum albumin BSA and cAMP (Sigma) Solutions and Buffers: • Assay buffer: 7.56 g Tris-Base was dissolved in approximately 800 mL distilled water and the pH adjusted to 7.5 with 1 M hydrochloric acid. 10.3 mL 1 M magnesium chloride and 4.25 mL 0.5 M EDTA were added. The solution was made to 1 L with distilled water and stored at 4° C. On day of use 18 mL of the above solution was removed and 2 mL 5 mg/ml BSA were added thereto. • Enzyme buffer: 10 mM Tris-HCl at pH 7.5, 1 mM EDTA • Yttrium silicate SPA beads: 1 vial was reconstituted in 28 mL distilled water and stored at 4° C. Assay
The assay was performed in a final volume of 100 μL per well of an Optiplate (Canberra Packard). A 10 μL aliquot of the test compound dissolved in DMSO/distilled water was placed in a well of an Optiplate plate, followed by the addition of 80 μL ‘Assay mix’ (5.5 μL [^3H]cAMP and 88 μL “cold” cAMP were diluted to 8.8 mL using assay buffer). The reaction was started by adding 10 μL hPDE3 (50 μL stock hPDE3 solution was diluted 50 fold to 2.5 mL using enzyme buffer). The plate was incubated at room temperature for 30 min, the reaction was then terminated by the addition of 50 μL Yttrium silicate SPA beads (pre-warmed to room temperature) to all wells. […] The plate was sealed using TopSeal-S according to the manufacturer's instructions and counted using a Packard TopCount, each well being counted for 1 min. IC50 values were determined using non-linear regression.
In general terms: Scintillation proximity formats need no separation of bound from free tracer.

human platelet PDE3, sequence (Q14432 whole entry): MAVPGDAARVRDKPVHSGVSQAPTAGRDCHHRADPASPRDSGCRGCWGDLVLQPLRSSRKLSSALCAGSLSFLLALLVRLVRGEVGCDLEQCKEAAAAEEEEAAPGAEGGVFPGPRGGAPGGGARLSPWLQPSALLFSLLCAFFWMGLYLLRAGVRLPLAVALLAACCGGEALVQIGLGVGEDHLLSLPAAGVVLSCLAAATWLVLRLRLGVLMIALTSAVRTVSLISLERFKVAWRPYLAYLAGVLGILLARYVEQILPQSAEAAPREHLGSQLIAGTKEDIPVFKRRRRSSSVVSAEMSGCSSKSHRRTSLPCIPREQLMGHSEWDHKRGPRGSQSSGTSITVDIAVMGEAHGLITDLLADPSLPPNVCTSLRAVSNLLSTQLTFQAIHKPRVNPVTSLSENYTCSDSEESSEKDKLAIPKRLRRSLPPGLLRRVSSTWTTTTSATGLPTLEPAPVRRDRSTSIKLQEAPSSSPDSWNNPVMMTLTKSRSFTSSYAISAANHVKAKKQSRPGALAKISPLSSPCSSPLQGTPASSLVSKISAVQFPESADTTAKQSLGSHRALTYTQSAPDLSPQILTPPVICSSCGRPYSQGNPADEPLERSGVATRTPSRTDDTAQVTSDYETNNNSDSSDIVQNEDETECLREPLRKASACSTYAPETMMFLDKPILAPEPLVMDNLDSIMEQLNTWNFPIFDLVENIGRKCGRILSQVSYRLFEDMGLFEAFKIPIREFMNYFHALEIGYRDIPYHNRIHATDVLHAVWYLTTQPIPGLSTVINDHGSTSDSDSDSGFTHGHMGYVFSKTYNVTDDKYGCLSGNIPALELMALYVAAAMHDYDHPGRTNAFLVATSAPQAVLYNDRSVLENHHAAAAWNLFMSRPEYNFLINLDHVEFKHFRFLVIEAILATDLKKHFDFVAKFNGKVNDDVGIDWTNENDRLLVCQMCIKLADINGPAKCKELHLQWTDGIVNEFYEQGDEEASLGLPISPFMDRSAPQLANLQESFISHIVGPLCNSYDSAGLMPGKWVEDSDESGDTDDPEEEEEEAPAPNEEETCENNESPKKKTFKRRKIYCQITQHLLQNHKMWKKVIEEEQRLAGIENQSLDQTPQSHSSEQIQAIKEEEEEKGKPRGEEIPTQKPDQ
c-Met receptor tyrosine kinase, GST-c-MET (969-1390), sequence (P08581 969-1390): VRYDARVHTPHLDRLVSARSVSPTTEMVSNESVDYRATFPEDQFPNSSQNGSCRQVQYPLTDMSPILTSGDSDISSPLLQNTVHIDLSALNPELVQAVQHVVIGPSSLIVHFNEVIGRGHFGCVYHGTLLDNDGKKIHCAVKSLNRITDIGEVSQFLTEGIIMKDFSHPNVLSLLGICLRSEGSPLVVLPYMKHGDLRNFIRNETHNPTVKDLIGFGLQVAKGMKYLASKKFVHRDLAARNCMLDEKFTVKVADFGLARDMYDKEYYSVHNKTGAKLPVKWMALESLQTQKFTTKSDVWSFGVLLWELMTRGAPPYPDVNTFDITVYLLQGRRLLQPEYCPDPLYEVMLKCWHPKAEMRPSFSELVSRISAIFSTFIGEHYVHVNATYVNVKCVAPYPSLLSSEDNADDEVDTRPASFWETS
Procedure for GTL16 cells: GTL16 Cell Viability Assay:
GTL16 expresses high level of c-Met receptor tyrosine kinase due to the gene amplification.
GTL16 cells were seeded in DMEM medium with 10% FBS and 1% Pene. & Strep. at 5000 cells/well/90 μL in 96 well plate and incubated overnight for attachment at 37° C. in 5% CO2 incubator. 10-fold serials dilutions of compounds were added to the cell as 10 μL/well. The final assay volume was 100 μl/well. The assay plates were incubated at 37° C. in 5% CO2 incubator for 24 hours. […] The chemiluminescent light unit was read in Envision from Perkin Elmer. All the tests were run at triplicates. The IC50 was calculated using Spotfire software.

Consider `CC1CN(c2cnc3ccc(Sc4nnc5ccc(-c6cnn(C)c6)cn45)cc3c2)CCO1` (centres unmarked) [Example 35, 2-Methyl-4-(6-(6-(1-methyl-1H-pyrazol-4-yl)-[1,2,4]triazolo[4,3-a]pyridin-3-ylthio)quinolin-3-yl)morpholine], for which the IC50 with GTL16 cells stood at 0.4 nM; in assay [1], 4 nM.
As for `C[C@@H]1CN(c2cnc3ccc(Sc4nnc5ccc(-c6cnn(C)c6)cn45)cc3c2)C[C@H](C)N1` [Example 42, 3-((3S,5R)-3,5-Dimethylpiperazin-1-yl)-6-(6-(1-methyl-1H-pyrazol-4-yl)-[1,2,4]triazolo[4,3-a]pyridin-3-ylthio)quinoline], the IC50 in the assay on GTL16 cells was 0.6 nM; in assay [1], 4 nM; against human platelet PDE3 it was 29000 nM.
Consider `C[C@H]1CN(c2cnc3ccc(Sc4nnc5ccc(-c6cnn(C)c6)cn45)cc3c2)CCO1` [Example 35A, (S)-2-Methyl-4-(6-(6-(1-methyl-1H-pyrazol-4-yl)-[1,2,4]triazolo[4,3-a]pyridin-3-ylthio)quinolin-3-yl)morpholine], for which the IC50 with GTL16 cells was 1 nM; in assay [1], 5 nM; on human platelet PDE3, 16000 nM.
The like results for `Cn1cc(-c2ccc3nnc(Sc4ccc5ncc(NC6CCN(C(=O)OC(C)(C)C)CC6)cc5c4)n3c2)cn1` [Example 22, tert-Butyl 4-(6-(6-(1-methyl-1H-pyrazol-4-yl)-[1,2,4]triazolo[4,3-a]pyridin-3-ylthio)quinolin-3-ylamino)piperidine-1-carboxylate] were, in that order, 2 nM, 19 nM and 15000 nM.
As to `C/C(=N\O)c1ccc2nnc(Sc3ccc4ncc(CN5CCOCC5)cc4c3)n2c1` [Example 79, (E)-1-(3-(3-(Morpholin-4-yl-methyl)quinolin-6-ylthio)-[1,2,4]triazolo[4,3-a]pyridin-6-yl)ethanone oxime], the figures for the IC50 (in the assay with GTL16 cells; in assay [1]; at human platelet PDE3) were 1140 nM, 83 nM and > 30000 nM, respectively.
As to `C[C@H]1CNCCN1c1cnc2ccc(Sc3nnc4c(F)cc(-c5cnn(C)c5)cn34)cc2c1` [Example 46, (S)-6-(8-Fluoro-6-(1-methyl-1H-pyrazol-4-yl)-[1,2,4]triazolo[4,3-a]pyridin-3-ylthio)-3-(2-methylpiperazin-1-yl)quinoline], the IC50 in assay [1] is […]; against human platelet PDE3, 30000 nM.
`C/C(=N\OCCO)c1ccc2nnc(Sc3ccc4ncc(N5CCN(C)CC5)cc4c3)n2c1` [Example 86, (E)-1-(3-(3-(4-methylpiperazin-1-yl)quinolin-6-ylthio)-[1,2,4]triazolo[4,3-a]pyridin-6-yl)ethanone O-2-hydroxyethyl oxime]: the IC50 in the assay with GTL16 cells worked out at 51 nM; at human platelet PDE3, 27000 nM.
As for `Cn1cc(-c2cc(F)c3nnc(Sc4ccc5ncc(N6CCC(O)CC6)cc5c4)n3c2)cn1` [Example 50, 1-(6-((8-Fluoro-6-(1-methyl-1H-pyrazol-4-yl)-[1,2,4]triazolo[4,3-a]pyridin-3-yl)thio)quinolin-3-yl)piperidin-4-ol], the IC50 in the assay on GTL16 cells was found to be 1 nM; at human platelet PDE3, 30000 nM.
On to `C/C(=N\O)c1ccc2nnc(Sc3ccc4ncc(NC5CCOCC5)cc4c3)n2c1` [Example 84, (E)-1-(3-(3-(Tetrahydro-2H-pyran-4-ylamino)quinolin-6-ylthio)-[1,2,4]triazolo[4,3-a]pyridin-6-yl)ethanone oxime], for which the IC50 in the assay with GTL16 cells is 3 nM; at human platelet PDE3 it was 6000 nM.
For `C[C@@H]1CN(c2cnc3ccc(Sc4nnc5ccc(-c6cnn(C)c6)cn45)cc3c2)CCO1` [Example 35B, (R)-2-Methyl-4-(6-(6-(1-methyl-1H-pyrazol-4-yl)-[1,2,4]triazolo[4,3-a]pyridin-3-ylthio)quinolin-3-yl)morpholine], the IC50 (in the assay with GTL16 cells; in assay [1]) was 4 nM each time.
Turning to `Cn1cc(-c2ccc3nnc(Sc4ccc5ncc(NC6CCNCC6)cc5c4)n3c2)cn1` [Example 23, 6-(6-(1-Methyl-1H-pyrazol-4-yl)-[1,2,4]triazolo[4,3-a]pyridin-3-ylthio)-N-(piperidin-4-yl)quinolin-3-amine], the IC50 with GTL16 cells worked out at 289 nM; on human platelet PDE3, 30000 nM.
